Counter-ions that a name gives are not always drawn.
Legend:
[1] = system: cortical neurons cultured from wild-type mice; test: Immunoblotting analysis of various proteins in cultured cortical neurons (U18666A-induced changes); assay type: cell-based; settings: for RhoA level (immunoblot) / Ubiquitin level (immunoblot) / p-4EBP1 level (immunoblot) / p-LIMK level (immunoblot) / p-Mdm2 level (immunoblot) / p-p38 level (immunoblot) / p-p53Δ level (immunoblot) / t-p38 level (immunoblot) / t-p53 level (immunoblot): DIV4 cortical neurons from wild-type mice, 5 μM U18666A, inhibitor pre-treatment 1 μM, DMSO = 100, n = 3-6
Experimental: (§1) Neuronal cultures. Cortical and hippocampal neurons were prepared from npc1+/+ and npc1−/− embryos at embryonic day 18 (E18); time-pregnant wild-type BALB/c or npc1+/− mice were obtained either from Charles River Laboratories (San Diego, Calif.) or from our breeding colony respectively. Neurons were cultured in NeuroBasal (GIBCO, Carlsbad, Calif.) with 10% bovine serum albumin (BSA), 2% B27, and 1% glutamine for three to four days before being used.
(§2) Treatment. For primary cultured neurons, chemicals (U18666A and inhibitors of various enzymes) were first dissolved in 10% DMSO before being diluted in cultured medium; final DMSO concentration was lower than 0.01%. For in vivo treatment, hydroxyfasudil monohydrochloride (Sigma) was dissolved in double-distilled H2O and injected subcutaneously at 10 mg/kg, twice a day from postnatal day 7 to day 28.
Immunoprecipitation and immunoblotting procedures. For immunoprecipitation, cultured cortical neurons were lysed in lysis buffer [0.05 M Tris base, 0.9% NaCl, pH 7.6, and 0.5% Triton X-100 plus Protease Inhibitors Cocktail (1:100; EMD Biosciences) and phosphatase inhibitor cocktails (1:500; Sigma)]. Lysates were centrifuged at 16,000×g for 30 min at 4° C. Supernatant were then cleared with a mixture of protein A/Gagarose beads (each 50%) for 1 h at 4 uC, and after a brief spin, pellets were discarded. A small portion of the supernatants was used as input. The reminder of the supernatant was immunoprecipitated overnight with control IgG or Tau1 antibodies. Immunoprecipitates were captured by incubation with protein A/G-agarose beads for 3 h at 4° C. After several washes, the beads were resuspended in 2×SDS sample buffer [4% sodium dodecyl sulfate (SDS), 100 mM Tris-HCl (pH 6.8), 10% b-mercaptoethanol, 20% glycerol and 0.2% bromophenol blue] and boiled for 10 min. The resulting proteins were separated by SDS-PAGE, and transferred to polyvinylidene difluoride membranes for immunoblotting using previously described protocols.
Because the p-p53Δ and p-p53 bands were very close in immunoblots and the former was the predominant band, p-p53Δ levels were used as an index of p-p53 degradation. Immunoprecipitation was used to determine whether p-p53 truncation affected its association with the microtubule-associated protein tau, a protein that is abundantly and exclusively expressed in axons. p53 labeled by either anti-p-p53 or anti-p53 antibodies was immunoprecipitated by Tau1 antibodies (FIG. 5B).
Increased levels of p-p53Δ and p-Mdm2 were quantified using the ImageJ program (National Institutes of Health, Bethesda, Md.). The quantified levels are contained in Table 1 below.

[2] = system: hippocampal neurons cultured from wild-type mice; test: Quantification of growth cone collapse in cultured neurons from wild-type mice (U18666A-induced); assay type: cell-based; settings: for growth cone collapse (share of neurons): 1 μM U18666A for 18 h
Experimental: as §1, §2
(§3) Immunofluorescent staining. Hippocampal neurons were fixed with 4% paraformaldehyde in phosphate buffer (PB; pH 7.4) for 15 min. After washing with 1× phosphate buffer saline (PBS), cells were permeabilized with 0.05% Triton X-100 in 1×PBS for 15 min, and incubated with blocking buffer (3% BSA, 0.02% Triton X-100 in 1×PBS) for 15 min before being probed with primary antibodies. The following primary antibodies were used: anti-E6AP (1:1000), anti-phospho-p53 (1:250), anti-phospho-4EBP1 (1:1000), antiphospho-Mdm2 antibody (1:250), anti-phospho-p38 antibody (1:250), anti-RhoA antibody (1:1500). All primary antibodies were diluted in blocking buffer and incubated at 4° C. for 18 h. After six washes (6×10 min) with 1×PBS at room temperature, cells were incubated with secondary antibodies, Alexa488-anti-rabbit (1:500) or Alexa594-anti-mouse (1:500); both antibodies were diluted in blocking buffer and incubated at room temperature for one h. Cells were then washed with 1×PBS (6×10 min) and sealed with mounting medium (Vectashield; Vector Laboratories, Inc., Burlingame, Calif.) containing 49,69-diamidino-2-phenylindole (DAPI) to stain nuclei. Immunofluorescent signal was detected with a Nikon confocal microscope (Nikon TE 2000U with DEclipse C1 system; Melville, N.Y.).
(§4) Quantification of growth cone morphology and immunoreactivity. Confocal images were taken using the 60× oil-immersion objective. About 20-30 images were randomly selected from each culture dish (20 mm in diameter); at least four to six dishes from three to six independent culture preparations/experiments were used for each experimental group. Within an experiment, cultures used for different experimental groups and designed for comparison were stained simultaneously and imaged with the same acquisition parameters. Quantification was done blindly by multiple researchers. Growth cones with less than 1 filopodium were considered collapsed; 100 growth cones were-quantified for each experimental group. Image J software was used to quantify immunoreactivity intensity of p-p53 and RhoA in axons and growth cones; the “total integrated density” was used instead of “average intensity”. Briefly, individual growth cones were outlined manually and the total integrated density was measured using Image J software. For quantification of immunoreactivity in axons, a 50 μm fragment of axons from the neck of growth cones towards the cell body was selected and integrated density measured.

npc1−/− mice = test: In vivo ROCK inhibition in developing npc1−/− mice, immunohistochemistry of brain sections; settings: 10 mg/kg subcutaneously twice a day, postnatal day 7 to 28
Experimental: Animals. A breeding colony of Npc1″ heterozygous mice that were on a BALB/c background (Jackson Laboratory, Bar Harbor, Me.) was established in order breed wild type (npc+/+) and npc1−/− mice. The genotype of the mice was determined by employing a polymerase chain reaction (PCR)-based method as described in reference. The Institutional Animal Care and Use Committee (IACUC) of Western University of Health Sciences approved the care and experimental protocols that these examples describe. The National Institutes of Health Guide for the Care and Use of Laboratory Animals and Animal Husbandry governed the use of animals by the inventors.
as §2
Perfusion and Immunohistochemistry. Mice were perfused with freshly prepared 4% paraformaldehyde in 1×PBS. Brains were then removed and post-fixed in 4% paraformaldehyde for 16 h followed by incubation with graded sucrose solutions. Brains were sectioned into 30 μm coronal sections with a microtome. Floating sections were processed for immunostaining as described previously. Briefly, sections were incubated with rabbit anti-p-p53 (1:250) and mouse anti-pan axonal neurofilament (SMI-312, 1:500; Covance) antibodies in 5% horse serum diluted in 0.1M PB overnight at 4° C. […] Quantification of p-p53 and neurofilament immunoreactivity in fasciculated bundles in the striatum was performed by using NIH ImageJ software. […] Analyzed area consisted of 450 μm×420 μm that was taken from two sections per mouse; three different mice were used for each experimental group. Means of integrated density and areas were quantified and expressed as percentage of values from npc1+/+ mice.

[3] = reference [26]; cited from earlier work
[4] = system: axons and growth cones of hippocampal neurons from wild-type mice; test: Immunofluorescence quantification of protein levels in axons and growth cones of wild-type hippocampal neurons; assay type: cell-based; settings: for RhoA levels in axons, percentage of control vehicle-treated neurons / RhoA levels in growth cones, percentage of control vehicle-treated neurons: immunohistochemical analysis, mean±SEM, n=25-40, Mdm2 inhibitor 1 μM
Experimental: as §1, §2, §3, §4

hippocampal neurons = test: Filipin staining of cholesterol in cultured hippocampal neurons; assay type: cell-based, mice; settings: 1 μM U18666A for 18 h
Experimental: Filipin staining. […] After immunostaining with anti-E6-AP and anti-p-p53 antibodies and corresponding secondary antibodies conjugated with either Alexa Fluor H 594 or Alexa Fluor H 488, neurons were washed with 1×PBS and incubated in the dark with […] filipin in 1×PBS for 2 h at room temperature. Neuronal cultures were then washed again with 1×PBS before being examined with confocal microscopy.
Because axonal growth cone collapse in hippocampal neurons from npc1−/− mice was associated with decreased levels of p-p53, over-expression of wild-type p53 was tested to determine if it could reverse growth cone collapse. In this set of experiments, the amphiphilic amine and cholesterol transport inhibitor, U18666A, was used to induce a NPC-like phenotype in hippocampal neurons cultured from wild-type mice. U18666A has been used to induce NPC-like phenotype in various cultured cells, including neurons. Treatment with 1 μM U18666A for 18 h induced growth cone collapse in about 80% of hippocampal neurons prepared from wild-type mice and transfected with an EGFP-vector or a vector containing p53 with the R175H mutation (p53-R175H), a conformational mutation that is frequently found in tumor cells that lack p53 function (FIGS. 1D and E). […]

[5] = wild-type cortical neurons treated with pifithrin-μ
[6] = 1 μM SB203580 pre-treatment, immunohistochemistry

SMILES: CC[C@H]1CN2CCc3cc(OC)c(OC)cc3[C@@H]2C[C@@H]1C[C@H]1NCCc2cc(OC)c(OC)cc21 [emetine]
- effect on U18666A-induced phosphorylation of LIMK ([1]; emetine pretreatment): significantly reduced
- effect on pifithrin-μ-induced increase in RhoA and p-LIMK ([1]; emetine pretreatment): blocked
- effect on U18666A-induced changes in levels of p-Mdm2, p-p38 and p-p53Δ ([1]; emetine treatment): did not affect
- effect on U18666A-induced increase in RhoA levels ([1]; pre-treatment with emetine): significantly reduced
- effect on U18666A-induced growth cone collapse ([2]; emetine pretreatment, FIG. 15C legend: cortical neurons, n=100 growth cones): significantly reduced

SMILES: O=c1[nH]ccc2c(S(=O)(=O)N3CCCNCC3)cccc12 [hydroxyfasudil monohydrochloride]
- SMI-312-immunopositive areas (npc1−/− mice): significantly increased
- number of axonal neurofilaments (SMI-312 staining), especially corpus callosum and striatum (npc1−/− mice): increased
- p-p53 immunoreactivity in brain sections (npc1−/− mice): increased
- blood-brain-barrier crossing [3]: cross the blood-brain-barrier
- ischemia-induced brain damage [3]: reduce ischemia-induced brain damage

SMILES: Cc1cncc2cccc(S(=O)(=O)N3CCCNC[C@@H]3C)c12.Cl.Cl [H 1152, (S)-(+)-2-Methyl-1-[(4-methyl-5-isoquinolinyl)sulfonyl]-hexahydro-1H-1,4-diazepine dihydrochloride]
- effect on U18666A-induced decrease in p-p53 immunoreactivity ([4]; 100 nM H 1152 for 3 h, then 5 μM U18666A 2 min): blocked
- effect on U18666A-induced growth cone collapse ([2]; pre-treatment with 100 nM H 1152 for 3 h, then 5 μM U18666A for 2 min): blocked

SMILES: CCN(CC)CCO[C@H]1CC[C@@]2(C)C(=CC[C@@H]3[C@@H]2CC[C@]2(C)C(=O)CC[C@@H]32)C1 [U18666A]
- p-p53 levels (immunoblot) ([1]; 5 μM U18666A for 2 min, DIV4 wild-type cortical neurons): rapid decrease
- RhoA level (immunoblot) [1]: 418
- Ubiquitin level (immunoblot) [1]: 435
- p-4EBP1 level (immunoblot) [1]: 389
- p-LIMK level (immunoblot) [1]: 411
- p-Mdm2 level (immunoblot) [1]: 549
- p-p38 level (immunoblot) [1]: 493
- p-p53Δ level (immunoblot) [1]: 775
- t-p38 level (immunoblot) [1]: 107
- t-p53 level (immunoblot) [1]: 94
- levels of "mutant" p53 in axons and growth cones ([4]; 5 μM U18666A for 2 min, DIV4): markedly reduced
- p-4EBP1 levels in axons and growth cones ([4]; 5 μM U18666A for two min): increased
- levels of p-p38 and p-Mdm2 in axons and growth cones ([4]; 5 μM U18666A for two min vs vehicle-treated controls): increased
- RhoA levels in axons, percentage of control vehicle-treated neurons [4]: 640±56%
- RhoA levels in growth cones, percentage of control vehicle-treated neurons [4]: 257±37%
- growth cone collapse (share of neurons) ([2]; neurons transfected with EGFP-vector or p53-R175H): about 80%
- growth cone collapse (share of neurons) ([2]; neurons transfected with wild-type p53): 20%
- growth cone collapse ([2]; 5 μM U18666A for 2 min, DIV4, no inhibitor, n=100 growth cones): 72±2%
- filipin fluorescence intensity (cholesterol) in axons and collapsed growth cones (hippocampal neurons): marked decrease

SMILES: NS(=O)(=O)C#Cc1ccccc1 [pifithrin-μ]
- levels of RhoA and p-LIMK (immunoblot) [1, 5]: rapid increase
- levels of p-4EBP1 [1, 5]: increased

SMILES: C[S+]([O-])c1ccc(-c2nc(-c3ccncc3)c(-c3ccc(F)cc3)[nH]2)cc1 (stereo not shown) [SB203580]
- RhoA level (immunoblot) [1]: 96 ± 0
- Ubiquitin level (immunoblot) [1]: 95 ± 7
- p-4EBP1 level (immunoblot) [1]: 99 ± 3
- p-LIMK level (immunoblot) [1]: 100 ± 3
- p-Mdm2 level (immunoblot) [1]: 92 ± 1
- p-p38 level (immunoblot) [1]: 96 ± 24
- p-p53Δ level (immunoblot) [1]: 94 ± 6
- t-p38 level (immunoblot) [1]: 99 ± 5
- t-p53 level (immunoblot) [1]: 107 ± 2
- effect on U18666A-induced RhoA increase in axons and growth cones [4, 6]: blocking effects
- effect on U18666A-induced p-p53 truncation in axons and growth cones [4, 6]: blocking effects
- effect on U18666A-induced growth cone collapse ([2]; preincubation with 1 μM SB203580 for 2 h before U18666A): significantly reduced

SMILES: Bc1ccc(C(=O)/C=C/c2ccc(I)cc2)cc1 [Mdm2-In, trans-4-Iodo, 49-boranyl-chalcone]
- RhoA level (immunoblot) [1]: 105 ± 1
- Ubiquitin level (immunoblot) [1]: 102 ± 5
- p-4EBP1 level (immunoblot) [1]: 104 ± 2
- p-LIMK level (immunoblot) [1]: 117 ± 6
- p-Mdm2 level (immunoblot) [1]: 100 ± 4
- p-p38 level (immunoblot) [1]: 108 ± 17
- p-p53Δ level (immunoblot) [1]: 106 ± 2
- t-p38 level (immunoblot) [1]: 104 ± 0
- t-p53 level (immunoblot) [1]: 104 ± 1
- effect on U18666A-induced decrease in p-p53 levels in axons and growth cones ([4]; Mdm2 inhibitor pre-treatment (1 μM), n=25-40 neurons): significantly reduced
- RhoA levels in axons, percentage of control vehicle-treated neurons [4]: 102±15%
- RhoA levels in growth cones, percentage of control vehicle-treated neurons [4]: 136±20%
- effect on U18666A-induced growth cone collapse ([2]; pretreatment with 1 μM Mdm2-in, n=100 growth cones): significantly reduced

— patent publication US20120010196A1, “METHODS OF TREATING NEURODEGENERATIVE DISORDERS AND DISEASES” (priority 2010, published 2012)
